Experimental data from publication PMC12040169 (PLOS Biology, 2025).

Assay: in vitro
Conditions: human, hela cells, % viability

| Structure (SMILES) | viability at 28.5 h, 10 µM |
| --- | --- |
| COc1cccc(-c2cncc(C3CCCN(Cc4ccc5[nH]ccc5c4)C3)n2)c1 (stereo not drawn) [CBK286151] | 84.7% |
| Cc1ccc2cc(CNc3ccc(-c4nc5cc(C)ccc5[nH]4)cc3)c(O)nc2c1 [CBK286156] | 70.8% |
| COc1ccc2cc(CNc3ccc(Oc4ccccc4)cc3)c(=O)[nH]c2c1 [CBK286158] | 83.7% |
| COc1ccc2cc(CNc3ccc(CCc4nc5ccccc5n4C)cc3)c(=O)[nH]c2c1 [CBK286159] | 103% |
| COc1ccc2[nH]c(=O)c(CNc3ccc(CCc4nc5ccccc5n4C)cc3)cc2c1 [CBK286162] | 87.9% |
| c1ccc(CN2CCC(NCc3ccco3)C(c3ccccc3)C2)cc1 (stereo not drawn) [CBK286167] | 95.4% |
| O=C(CN1C2CCC1CC(O)(c1ccco1)C2)N1c2ccccc2CCc2ccccc21 (stereo not drawn) [CBK286168] | 94% |
| O=C(c1nc2ccccc2s1)C1CCN(C(=O)CCc2ccc(-c3ccccc3)o2)CC1 [CBK286170] | 86.8% |
| CC[C@H](Cn1ncc2ccccc2c1=O)NC(=O)c1ccc2c(c1)Sc1ccccc1O2 [CBK286173] | 81.3% |
| O=C(c1ccc(-c2ccc(F)cc2)o1)N1CCC(n2c(=O)oc3ccccc32)CC1 [CBK286175] | 104% |
| COc1ccc(N2CCN(c3c(C)c(C)nc4cc(-c5nccn5C)nn34)CC2)cc1 [CBK286178] | 85.1% |
| COc1ccc(C(=O)Cn2nc3nnc(-c4ccccc4)c(-c4ccccc4)n3c2=O)cc1 [CBK286181] | 83.4% |
| COc1ccccc1N1CCN(c2c(C)c(C)nc3cc(-c4nccn4C)nn23)CC1 [CBK286182] | 87.5% |
| O=C(Cc1ccc(-c2ccccc2)cc1)N1CCC2(CC1)Nc1ccccc1S(=O)(=O)N2 [CBK286189] | 79.2% |
| CCC1Oc2ccc(C(O)c3ccco3)cc2N(Cc2cccc(OC)c2)C1=O (stereo not drawn) [CBK286190] | 89.7% |
| COc1cc2c(cc1OC)C1c3ccccc3N(Cn3nnc4ccccc43)C(=O)N1CC2 (stereo not drawn) [CBK286193] | 84.2% |
| Cc1ccc2c(c1)oc(=O)n2CCNC(=O)CC1c2ccccc2Oc2ccccc21 [CBK286194] | 94.8% |
| c1ccc(-c2nnc(-c3ccco3)c(-c3ccco3)n2)cc1 [CBK286196] | 83.7% |
| O=C(NCCn1c(=O)oc2ccccc21)C(c1cccs1)c1cccs1 [CBK286198] | 99.8% |
| CC(=O)N1CCc2sccc2C1c1ccc(NC(=O)c2ccco2)cc1 (stereo not drawn) [CBK286199] | 102% |
| CN(C)c1ccc(NC(=O)CN2C(=O)[C@H]3CCCN3c3ncccc32)cc1 [CBK286202] | 118% |

| Structure (SMILES) | viability at 28.5 h, 10 µM |
| --- | --- |
| O=C(CN1C(=O)[C@@H]2CCCN2c2ncccc21)NC1CCCCC1 [CBK286204] | 116% |
| COc1cccc(-c2cccc(C3CCCN(C(=O)Cc4c[nH]c5ccccc45)C3)n2)c1 (stereo not drawn) [CBK286207] | 114% |
| O=C(COc1ccccc1)N1CCC(c2cccc(Cc3ccccc3F)n2)CC1 [CBK286211] | 104% |
| COc1ccc(CCC(=O)N2CCC(c3cccc(Cc4cccc(F)c4)n3)CC2)cc1 [CBK286212] | 105% |
| O=C(Cc1ccc(F)cc1)N1CCC(c2cccc(Cc3ccccc3F)n2)CC1 [CBK286213] | 117% |
| O=C(CN1CCCC1)N1CCC(c2cccc(Cc3ccc(C(F)(F)F)cc3)n2)CC1 [CBK286215] | 106% |
| Cc1ncsc1C(=O)N1CCC(c2cccc(Cc3ccc(C(F)(F)F)cc3)n2)CC1 [CBK286216] | 99.5% |
| COc1ccccc1-c1cccc(C2CCCN(C(=O)CCCc3ccccc3)C2)n1 (stereo not drawn) [CBK286217] | 100% |
| O=C(c1ccccc1)N1CCCC(c2nccnc2-c2cccc(C(F)(F)F)c2)C1 (stereo not drawn) [CBK286218] | 99.9% |
| O=C(CCc1ccccc1)N1CCC(c2cccc(Cc3cccc(F)c3)n2)CC1 [CBK286219] | 97.5% |
| COc1ccc(CC(=O)N2CCCC2c2cccc(Cc3cccc(F)c3)n2)cc1 (stereo not drawn) [CBK286220] | 108% |
| O=C(Cc1cccnc1)N1CCC(c2cccc(Cc3ccc(C(F)(F)F)cc3)n2)CC1 [CBK286223] | 92.8% |
| COc1ccc(CC(=O)N2CCCC(c3nc(C)c4c(n3)N(CC3CC3)CCC4)C2)cc1 (stereo not drawn) [CBK286228] | 100% |
| COc1ccccc1Cc1cccc(C2CCCN2C(=O)CCc2ccccc2)n1 (stereo not drawn) [CBK286229] | 108% |
| O=C(COc1ccccc1)N1CCCC1c1cccc(Cc2ccc(F)cc2)n1 (stereo not drawn) [CBK286230] | 102% |
| O=C(Cc1ccc(F)cc1)N1CCCC1c1cccc(Cc2ccc(F)cc2)n1 (stereo not drawn) [CBK286234] | 94.7% |
| O=C(COc1ccc(F)cc1)N1CCCC1c1cccc(Cc2ccc(F)cc2)n1 (stereo not drawn) [CBK286235] | 99.3% |
| COc1ccccc1Cc1cccc(C2CCN(C(=O)c3ccccc3)CC2)n1 [CBK286236] | 101% |
| Cc1cccc(Cc2cccc(C3CCCN(C(=O)c4ccc(=O)[nH]c4)C3)n2)c1 (stereo not drawn) [CBK286243] | 95.9% |
| CCn1ncc(S(=O)(=O)N2CCCC(c3cccc(Cc4cccc(C)c4)n3)C2)c1C (stereo not drawn) [CBK286244] | 97.7% |
| O=C(CCc1ccc(F)cc1)N1CCC(CC(=O)N2CCN(c3ccccc3)CC2)CC1 [CBK286245] | 108% |

| Structure (SMILES) | viability at 28.5 h, 10 µM |
| --- | --- |
| CCC(=O)N1CCCC1c1nc(C)c2c(n1)N(Cc1ccc(F)cc1)CCC2 (stereo not drawn) [CBK286247] | 104% |
| Cc1nc(C2CCCN2C(=O)CC2CCCC2)nc2c1CCCN2Cc1ccccn1 (stereo not drawn) [CBK286252] | 105% |
| CN(C)c1ncc(-c2ccccc2)c(C2CCCN2Cc2ccc3ncccc3c2)n1 (stereo not drawn) [CBK286256] | 77.6% |
| Cc1nc(C2CCCN(C(=O)C3CCC3)C2)nc2c1CCCN2Cc1ccccc1 (stereo not drawn) [CBK286257] | 78.2% |
| CCCn1cc(S(=O)(=O)N2CCCC2c2ccc(Nc3cccc(C)n3)cn2)c(C)n1 (stereo not drawn) [CBK286258] | 77.6% |
| CN(Cc1ccc2ncccc2c1)C(=O)CC1CCN(CCc2ccccc2)CC1 [CBK286261] | 108% |
| Cc1cc(Cc2ccccc2Cl)cc(C2CCCN(CC(=O)N(C)C)C2)n1 (stereo not drawn) [CBK286262] | 87.6% |
| COc1ccc(C2CCCN2C(=O)CC2CCN(C(=O)CC3CCCCC3)CC2)cc1 (stereo not drawn) [CBK286263] | 102% |
| COc1cccc(C2CCCN2C(=O)CC2CCN(C(=O)CC3CCCCC3)CC2)c1 (stereo not drawn) [CBK286264] | 98.4% |
| CN(CC1COc2ccccc2O1)C(=O)CC1CCN(C(=O)CC2CCCCC2)CC1 (stereo not drawn) [CBK286265] | 92.7% |
| O=C(CC1CCN(C(=O)c2ccc3nsnc3c2)CC1)N1CCN(c2ccccc2)CC1 [CBK286266] | 85.9% |
| O=C(CC1CCCC1)N1CCC(c2cc(CCOc3cccc(C(F)(F)F)c3)[nH]n2)C1 (stereo not drawn) [CBK286267] | 89.4% |
| O=C1C(C2CCN(Cc3ccc4ncccc4c3)CC2)CC=CCN1Cc1ccccc1 (stereo not drawn) [CBK286269] | 108% |
| CN(C)C(=O)C1(Cc2ccc(-c3cccs3)cc2)CCN(C(=O)c2ccccc2)CC1 [CBK286270] | 85.5% |
| O=C(CCC1CCCCC1)N1CCC(c2n[nH]cc2C(=O)N2CCc3ccccc3C2)CC1 [CBK286271] | 95.4% |
| COc1ccccc1OCc1cc(C)c(C(=O)N2CCN(C)CC2c2ccccc2)o1 (stereo not drawn) [CBK286273] | 89.3% |
| CCCNC(=O)C1(Cc2ccccc2-c2ccccc2)CCN(C(=O)c2ccccc2)CC1 [CBK286275] | 89.3% |
| CN(Cc1ccccc1)CC(O)c1ccc2c(c1)CCCN2C(=O)c1ccccc1F (stereo not drawn) [CBK286278] | 88.2% |
| O=C1CCCC[C@@H]2[C@@H](N1)[C@H](c1ccccc1)CN2Cc1ccnc2ccccc12 [CBK286280] | 102% |
| O=C(c1ccco1)N1CCC(c2nnc(-c3ccccc3)c(-c3ccccc3)n2)CC1 [CBK286282] | 86.4% |
| COc1ccccc1-c1nnc(NCc2ccc3c(c2)OCO3)nc1-c1ccccc1OC [CBK286284] | 96.4% |

| Structure (SMILES) | viability at 28.5 h, 10 µM |
| --- | --- |
| COc1ccc([C@H]2CN(Cc3ccccc3)[C@@H]3CCN(C(=O)Cc4ccccc4)C[C@H]23)cc1 [CBK286285] | 108% |
| O=C(Nc1cccc(CCc2ccncc2)c1)C1CC(=O)N(Cc2ccncc2)C1 (stereo not drawn) [CBK286287] | 89.6% |
| CC(=O)NC1(c2ccccc2)CCN(C(=O)Nc2ccccc2-c2ccccc2)CC1 [CBK286288] | 94.9% |
| O=C(c1ccccc1)N1C[C@H](c2ccc(F)cc2)[C@H]2CN(CCc3ccccc3)CC[C@H]21 [CBK286291] | 98.2% |
| COc1cccc(CN2CC[C@@H]3[C@H](C2)[C@@H](c2ccc(F)cc2)CN3C(=O)c2ccccc2)c1 [CBK286292] | 107% |
| O=C(Cc1ccc(-c2ccccc2)cc1)NCc1nnc(-c2cccs2)o1 [CBK286295] | 94.3% |
| O=C(NCc1nnc(-c2cccs2)o1)C1c2ccccc2Oc2ccccc21 [CBK286297] | 94.8% |
| Cc1ccc(-c2nnc(CNC(=O)c3ccccc3-c3ccccc3)o2)s1 [CBK286298] | 89.2% |
| Cc1ccc(-c2nnc(CNC(=O)C(c3ccccc3)c3ccccc3)o2)s1 [CBK286299] | 102% |
| Cc1ccc(-c2nnc(CNC(=O)c3cccc(-c4ccc(F)cc4)c3)o2)s1 [CBK286300] | 109% |
| Cn1ncc(Cl)c1C1CCCCCN1S(=O)(=O)c1ccc2[nH]c(=O)[nH]c(=O)c2c1 (stereo not drawn) [CBK286303] | 102% |
| O=C(CN1CCC(O)(Cn2cnc3ccccc32)CC1)c1ccc(-c2ccccc2)cc1 [CBK286306] | 86.8% |
| O=C1NC2(CCN(C(=O)CC3c4ccccc4Oc4ccccc43)CC2)Nc2ccccc21 [CBK286307] | 98.8% |
| CC(C(=O)N1CCC2(CC1)NC(=O)c1ccccc1N2)(c1ccccc1)c1ccccc1 [CBK286308] | 108% |
| COc1cc2c(cc1OC)C1c3ccccc3NC(c3ccccc3F)N1CC2 (stereo not drawn) [CBK286311] | 98.9% |
| O=C(Cc1ccc(-c2ccccc2)cc1)N1CCc2nc3ccccc3c(=O)n2CC1 [CBK286312] | 97.2% |
| O=C(c1ccco1)N1CCc2c([nH]c3ccccc23)C12CCN(Cc1ccccc1)CC2 [CBK286313] | 91% |
| O=C(CC1c2ccccc2Oc2ccccc21)N1CCc2nc3ccccc3c(=O)n2CC1 [CBK286314] | 92.4% |
